Data set [1] addresses T1, Neuropeptide Y receptor type 5 (Homo sapiens, UniProt Q15761).
T1 sequence (Q15761 whole entry): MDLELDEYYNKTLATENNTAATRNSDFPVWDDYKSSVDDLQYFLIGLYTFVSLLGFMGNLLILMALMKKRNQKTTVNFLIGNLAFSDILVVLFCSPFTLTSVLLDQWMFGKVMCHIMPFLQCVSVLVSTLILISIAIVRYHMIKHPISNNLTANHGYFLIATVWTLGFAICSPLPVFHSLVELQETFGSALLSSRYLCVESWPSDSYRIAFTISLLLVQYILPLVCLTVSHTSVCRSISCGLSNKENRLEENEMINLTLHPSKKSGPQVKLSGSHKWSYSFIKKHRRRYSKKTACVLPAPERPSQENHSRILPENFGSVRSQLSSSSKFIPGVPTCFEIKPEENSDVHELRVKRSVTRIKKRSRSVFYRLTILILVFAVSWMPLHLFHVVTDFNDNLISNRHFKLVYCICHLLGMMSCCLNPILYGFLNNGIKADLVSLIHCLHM
Briefly: Antagonist activity at human NPY Y5 receptor. The data set is classed as functional.

A further data set deals with T2, Cytochrome P450 1A2 (Homo sapiens, UniProt P05177).
T2 sequence (P05177 whole entry): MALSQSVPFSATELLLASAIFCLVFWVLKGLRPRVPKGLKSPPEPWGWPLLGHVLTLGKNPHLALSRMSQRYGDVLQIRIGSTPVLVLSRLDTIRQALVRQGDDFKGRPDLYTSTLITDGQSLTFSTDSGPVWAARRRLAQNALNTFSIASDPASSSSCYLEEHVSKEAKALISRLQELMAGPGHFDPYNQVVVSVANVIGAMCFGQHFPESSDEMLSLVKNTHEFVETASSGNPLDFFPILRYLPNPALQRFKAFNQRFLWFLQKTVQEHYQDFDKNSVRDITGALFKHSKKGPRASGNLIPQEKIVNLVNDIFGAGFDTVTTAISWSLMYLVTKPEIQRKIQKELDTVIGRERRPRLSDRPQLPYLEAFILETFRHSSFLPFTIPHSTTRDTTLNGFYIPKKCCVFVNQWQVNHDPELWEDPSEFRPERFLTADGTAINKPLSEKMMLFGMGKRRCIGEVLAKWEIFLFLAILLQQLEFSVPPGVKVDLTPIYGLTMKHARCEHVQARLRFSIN
Briefly: Inhibition of CYP1A2. It counts as ADME.

The next data set deals with Cytochrome P450 2C9 (Homo sapiens, UniProt P11712). The data set can be described thus: Inhibition of CYP2C9. It counts as ADME.
Cytochrome P450 2C9, sequence (P11712 whole entry): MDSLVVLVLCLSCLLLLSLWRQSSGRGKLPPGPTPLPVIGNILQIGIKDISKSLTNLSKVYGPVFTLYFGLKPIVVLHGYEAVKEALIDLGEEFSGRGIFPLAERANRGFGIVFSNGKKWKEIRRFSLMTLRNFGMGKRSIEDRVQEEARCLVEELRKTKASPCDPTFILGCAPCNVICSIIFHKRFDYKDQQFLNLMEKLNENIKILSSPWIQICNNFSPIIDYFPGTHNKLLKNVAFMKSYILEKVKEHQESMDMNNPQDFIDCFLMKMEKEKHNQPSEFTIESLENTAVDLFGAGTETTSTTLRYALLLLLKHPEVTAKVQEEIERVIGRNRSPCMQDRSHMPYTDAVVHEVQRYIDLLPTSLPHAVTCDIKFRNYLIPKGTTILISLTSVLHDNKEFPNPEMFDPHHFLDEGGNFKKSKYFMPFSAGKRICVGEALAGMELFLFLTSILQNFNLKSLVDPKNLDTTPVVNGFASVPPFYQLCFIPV
In a further data set the target is Cytochrome P450 2D6 (Homo sapiens, UniProt P10635). The data set can be described thus: Inhibition of CYP2D6. The data set is classed as ADME.
Cytochrome P450 2D6, sequence (P10635 whole entry): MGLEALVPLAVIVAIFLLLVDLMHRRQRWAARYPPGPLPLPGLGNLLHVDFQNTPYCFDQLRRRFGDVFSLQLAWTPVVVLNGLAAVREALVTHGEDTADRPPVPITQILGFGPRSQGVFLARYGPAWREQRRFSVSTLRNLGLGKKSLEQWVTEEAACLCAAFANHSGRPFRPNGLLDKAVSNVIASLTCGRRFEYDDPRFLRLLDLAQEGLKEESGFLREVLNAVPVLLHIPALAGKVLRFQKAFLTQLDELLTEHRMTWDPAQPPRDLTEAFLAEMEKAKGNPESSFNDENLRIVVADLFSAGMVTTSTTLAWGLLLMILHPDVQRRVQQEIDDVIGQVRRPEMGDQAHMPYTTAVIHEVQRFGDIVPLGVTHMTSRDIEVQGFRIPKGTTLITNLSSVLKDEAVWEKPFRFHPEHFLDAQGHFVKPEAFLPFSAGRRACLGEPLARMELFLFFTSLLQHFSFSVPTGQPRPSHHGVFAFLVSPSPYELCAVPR
The next data set has as its target Cytochrome P450 3A4 (Homo sapiens, UniProt P08684). The data set can be described thus: Inhibition of CYP3A4. It counts as ADME.
The nature of data set [2]: Protein binding in rat brain assessed as unbound fraction. It counts as ADME, tissue-based. Particulars: brain tissue.
The nature of data set [3]: Clearance in rat blood at 0.5 mg/kg, iv and 1 mg/kg, po. Conditions: whole blood. It counts as ADME, organism-based.
Data set [4] in a line: Oral bioavailability in rat at 1 mg/kg. It counts as ADME, organism-based. Conditions: in vivo.
Data set [5] can be described thus: Ratio of drug uptake from blood to brain in rat. The data set is classed as ADME, tissue-based. Particulars: brain and blood.
Data set [6] has as its system Liver microsomes. Briefly: Intrinsic clearance in rat liver microsome. The data set is classed as ADME.
Data set [7] deals with Liver microsomes. Briefly: Intrinsic clearance in human liver microsome. The data set is classed as ADME. (Microsomes from liver hold many membrane-bound enzymes, among them those of drug oxidation.)
In the next data set the target is Cytochrome P450 2C19 (Homo sapiens, UniProt P33261). Briefly: Inhibition of CYP2C19. The data set is classed as ADME.
Cytochrome P450 2C19, sequence (P33261 whole entry): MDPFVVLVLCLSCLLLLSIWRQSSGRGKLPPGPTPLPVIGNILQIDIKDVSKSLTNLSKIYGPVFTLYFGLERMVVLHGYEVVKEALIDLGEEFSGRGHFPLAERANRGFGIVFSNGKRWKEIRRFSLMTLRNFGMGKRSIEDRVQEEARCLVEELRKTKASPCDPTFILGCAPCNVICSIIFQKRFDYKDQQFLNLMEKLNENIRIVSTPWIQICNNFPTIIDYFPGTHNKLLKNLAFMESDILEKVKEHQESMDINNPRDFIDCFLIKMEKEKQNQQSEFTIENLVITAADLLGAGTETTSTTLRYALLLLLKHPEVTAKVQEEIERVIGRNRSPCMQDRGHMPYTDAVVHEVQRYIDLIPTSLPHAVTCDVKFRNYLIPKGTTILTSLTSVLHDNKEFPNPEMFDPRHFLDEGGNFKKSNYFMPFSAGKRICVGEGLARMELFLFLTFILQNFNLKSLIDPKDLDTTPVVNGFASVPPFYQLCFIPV
The test system of the next data set is Rattus norvegicus. Briefly: In vivo antagonist activity at NPY Y5 receptor in orally dosed rat assessed as reduction in food intake. Particulars: oral, read-out: MED.

For orientation: Ki means a dissociation constant, usually derived from enzyme kinetics or from competition with a known ligand. The term fraction unbound denotes free concentration divided by total concentration. As usually defined, the bioavailability is the share of a dose that reaches the circulation, judged against a reference dose that is usually intravenous. Higher therefore signals good availability. The term Kp denotes the ratio of the level in a tissue or fluid to that in plasma or blood.

Cytochrome P450 3A4, sequence (P08684 whole entry): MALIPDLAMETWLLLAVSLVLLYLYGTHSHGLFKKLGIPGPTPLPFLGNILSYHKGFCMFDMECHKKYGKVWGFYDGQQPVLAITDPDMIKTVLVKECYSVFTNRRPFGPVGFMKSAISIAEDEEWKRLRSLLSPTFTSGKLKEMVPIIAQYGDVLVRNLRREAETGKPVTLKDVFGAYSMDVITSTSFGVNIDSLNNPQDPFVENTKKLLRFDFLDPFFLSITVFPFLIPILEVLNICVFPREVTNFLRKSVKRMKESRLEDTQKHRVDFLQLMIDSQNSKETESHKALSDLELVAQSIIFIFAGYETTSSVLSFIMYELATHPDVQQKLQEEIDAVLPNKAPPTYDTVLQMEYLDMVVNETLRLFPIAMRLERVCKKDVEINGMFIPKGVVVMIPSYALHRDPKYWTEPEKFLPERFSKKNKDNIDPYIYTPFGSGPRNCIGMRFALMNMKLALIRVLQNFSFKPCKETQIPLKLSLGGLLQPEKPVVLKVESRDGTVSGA

As for `O=C1O[C@]2(CC[C@H](CNc3nc(-c4ccccn4)cs3)CC2)CN1c1ccccn1`, affinity in data set [1] was put at a Ki of 0.0794 nM. Moreover, the INH at Cytochrome P450 1A2 is greater than 10 µM; at Cytochrome P450 2C9, 6 µM; on Cytochrome P450 2D6, greater than 10 µM; at Cytochrome P450 3A4, 3 µM; on Cytochrome P450 2C19, 3 µM. Besides, the free fraction (fraction unbound) in data set [2] came out at 0.01. Further, in data set [3], the clearance stood at 30 mL/min/kg. In [4], this compound displayed a bioavailability of 35%. Further, the concentration ratio (Kp) in [5] amounted to 0.7. Besides, the CL is 3.1 mL/min/g in the data set with Liver microsomes [6] and 4 mL/min/g in the data set on Liver microsomes [7]. The minimal effective dose in the data set on Rattus norvegicus amounted to 10 mg/kg.

In turn, `O=C1O[C@]2(CC[C@H](CNc3cnn(-c4ccccc4F)c3)CC2)CN1c1cccnn1` gave a Ki in data set [1] of 0.1 nM. In addition, the INH on Cytochrome P450 1A2, on Cytochrome P450 2C9, on Cytochrome P450 2D6 and on Cytochrome P450 3A4 was greater than 10 µM throughout. In data set [2], the fraction unbound amounted to 0.031. Also, the clearance in data set [3] turned out to be 13 mL/min/kg. In data set [4], this compound displayed a bioavailability of 52%. For the same compound, the Kp in [5] worked out at 0.9. In addition, the CL in the data set with Liver microsomes [6] and in the data set on Liver microsomes [7] was less than 0.5 mL/min/g in each case. Also, in the data set on Rattus norvegicus, the minimal effective dose was determined as 3 mg/kg.

Regarding `O=C1O[C@]2(CC[C@H](CNc3ccc(-c4ccccc4F)nn3)CC2)CN1c1cccnn1`, the Ki in [1] was 0.158 nM. In addition, the INH on Cytochrome P450 1A2, on Cytochrome P450 2C9, at Cytochrome P450 2D6, on Cytochrome P450 3A4 and at Cytochrome P450 2C19 was greater than 10 µM each time. Besides, the fraction unbound in [2] stood at 0.046. Besides, the clearance in data set [3] stood at 18 mL/min/kg. The compound also showed a bioavailability in data set [4] of 90%. Further, the Kp in data set [5] amounted to 0.25. Further, the CL in the data set on Liver microsomes [6] and in the data set with Liver microsomes [7] was less than 0.5 mL/min/g each time.

The compound `O=C1O[C@]2(CC[C@H](CNc3ccc(-c4cc(F)cc(F)c4)nn3)CC2)CN1c1cccnn1` showed a Ki in data set [1] of 0.1 nM. Also, the INH on Cytochrome P450 1A2 is greater than 10 µM; on Cytochrome P450 2C9 it was 8 µM; at Cytochrome P450 2D6, greater than 10 µM; on Cytochrome P450 3A4, greater than 10 µM. Moreover, the fraction unbound in [2] worked out at 0.016. The compound also registered a clearance in data set [3] of 41 mL/min/kg. The same compound registered a bioavailability in [4] of 75%. The Kp in data set [5] came out at 1.6. Also, the CL in the data set with Liver microsomes [6] and with Liver microsomes [7] was less than 0.5 mL/min/g each time. Besides, the minimal effective dose with Rattus norvegicus was 3 mg/kg.
